{"source": "patent US20190060249A1", "about": "(priority 2017, published 2019)", "key": {"[1]": {"test_system": "intact SMG from CD-1 E13.5 embryos", "experiment": "DarkZone dye aldehyde assay in intact E13.5 embryonic SMG", "format": "cell-based, mouse", "conditions": "25 μM Alda-341 for 24 h, 4 Gy, 3 h after radiation", "experimental": "DarkZone dye aldehyde assay in intact E13.5 embryonic SMG: E13.5 embryonic whole SMG were manually dissected and cultured in DMEM/F12 with 50 ug/mL transferrin and 50 ug/mL Vitamin C for 24 h. Glands were irradiated with 4 or 8 Gy and incubated with 20 uM DarkZone fluorescein aldehyde dye and 10 mM 2,4-Dimethoxyaniline catalyst (TCI America) for 1 h (Yuen, L. H., Saxena, N. S., Park, H. S., Weinberg, K., and Kool, E. T. (2016) Dark Hydrazone Fluorescence Labeling Agents Enable Imaging of Cellular Aldehydic Load. ACS chemical biology 11, 2312-2319). Glands were imaged 3 h after radiation using a Keyence BZ-X710 microscope GFP filter at 10× magnification. Average fluorescence intensity was quantified using Image J (NIH).\nAfter 24 h, the glands were irradiated with 4 Gy and incubated SMG with DarkZone dye to measure intracellular aldehydes. After 3 h, the aldehydic load in the irradiated vehicle control-treated SMG was more than 4-fold greater than the non-irradiated vehicle control-treated SMG."}, "[2]": {"test_system": "mouse WT EpCAM+/CD24+-sorted cells", "experiment": "Salisphere formation assay, mouse", "format": "cell-based", "conditions": "25 μM Alda-341 over 7 days", "experimental": "Salisphere formation assay: Cells isolated from mouse submandibular glands (SMG) were FACS sorted using cell surface markers EpCAM and CD24 as previously described and seeded on matrigel (BD Biosciences, BD356235). Cells were grown in DMEM/F12+GlutaMax (Gibco, 10565-018) media containing 10% FBS, 1× anti-anti, 1% N2 supplement (Gibco), 20 ng/mL […] (Sigma-Aldrich), 20 ng/mL fibroblast growth factor-2 (Sigma-Aldrich), 10 μg/mL insulin (Sigma-Aldrich), 1 μM dexamethasone (Sigma-Aldrich), 10 μM […] (Stem Cell Technologies). Spheres were passaged every 7 days by dissociating into single cells by incubating in 1 mg/mL dispase (BD Biosciences) for 20 minutes and 0.25% trypsin-EDTA for 20 minutes. Spheres were grown for 7 days and imaged with a BZ-X710 Keyence microscope using the z-stack function. Images were stitched together into a single image and analyzed using ImageJ (NIH) to quantify sphere number and area. Experiments were repeated at least 3 independent times.\nSphere number per well quantified by Image J (NIH). 6 replicates per group."}, "[3]": {"conditions": "C57BL/6 female mice irradiated with 30 Gy, treated 8 weeks with Alda-341", "experimental": "Pathology: A complete necropsy was performed by a certified veterinarian. Tissues from brain, heart, kidney, liver, esophagus, thymus, trachea, thyroid, lung, spleen, pancreas, trachea, stomach, pancreas, intestines, bladder, uterus and ovary were fixed on slides and scored for inflammation, necrosis, and apoptosis from a scale of 0 to 5. A complete blood count and blood chemistry panel was assessed by Stanford's Veterinary Services Center."}, "ALDH3A1": {"target": "T1, ALDH3A1 (Homo sapiens, UniProt P30838)", "T1 sequence (P30838 1-453)": "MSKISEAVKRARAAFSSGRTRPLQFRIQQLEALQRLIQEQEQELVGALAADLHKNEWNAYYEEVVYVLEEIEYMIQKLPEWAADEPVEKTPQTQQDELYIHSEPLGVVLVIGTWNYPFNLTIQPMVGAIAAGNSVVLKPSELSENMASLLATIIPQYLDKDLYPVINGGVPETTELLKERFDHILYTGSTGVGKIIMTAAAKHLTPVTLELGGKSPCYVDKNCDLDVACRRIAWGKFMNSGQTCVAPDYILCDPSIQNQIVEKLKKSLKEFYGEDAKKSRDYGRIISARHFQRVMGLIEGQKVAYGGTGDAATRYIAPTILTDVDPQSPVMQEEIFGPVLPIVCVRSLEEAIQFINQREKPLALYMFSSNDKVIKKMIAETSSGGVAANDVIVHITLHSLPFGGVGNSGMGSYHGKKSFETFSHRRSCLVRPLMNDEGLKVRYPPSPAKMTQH", "experiment": "ALDH fluorescence-coupled enzymatic assay, all-trans-retinal substrate, ALDH3A1", "format": "biochemical", "experimental": "Assay conditions were modified from the original enzyme assay protocol above using 50 mM NaPPi buffer (pH 7.4), 2.5 mM NAD^+, 10 mM acetaldehyde or all-trans-retinal substrate with the addition of 1 U/mL diaphorase and 0.1 mM resazurin for the secondary reaction. Measurements were collected in triplicate at 25° C."}, "ALDH4A1": {"target": "T2, ALDH4A1 (Homo sapiens, UniProt P30038)", "T2 sequence (P30038 25-563)": "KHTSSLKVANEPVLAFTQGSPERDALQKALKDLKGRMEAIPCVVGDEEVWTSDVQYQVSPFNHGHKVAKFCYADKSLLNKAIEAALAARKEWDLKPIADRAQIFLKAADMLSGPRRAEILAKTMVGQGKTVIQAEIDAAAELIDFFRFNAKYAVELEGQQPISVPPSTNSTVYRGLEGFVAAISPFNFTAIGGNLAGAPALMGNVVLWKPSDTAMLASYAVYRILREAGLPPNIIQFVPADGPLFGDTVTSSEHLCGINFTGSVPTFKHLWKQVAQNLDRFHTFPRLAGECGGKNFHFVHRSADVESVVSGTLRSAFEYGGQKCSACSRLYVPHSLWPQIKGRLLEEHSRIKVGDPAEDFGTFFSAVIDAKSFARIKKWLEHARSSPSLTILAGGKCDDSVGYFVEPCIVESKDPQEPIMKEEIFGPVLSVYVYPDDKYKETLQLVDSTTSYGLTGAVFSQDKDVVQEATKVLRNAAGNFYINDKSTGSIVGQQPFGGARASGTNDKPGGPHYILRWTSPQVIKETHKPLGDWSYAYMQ", "experiment": "ALDH enzymatic assay, recombinant ALDH4A1", "format": "biochemical", "conditions": "5 μg/ml recombinant enzyme, 10 mM acetaldehyde, 20 μM Alda-341", "experimental": "ALDH enzymatic assay: ALDH1A1, ALDH1A2, 2, 3A1, 3A2, 4A1, 5A1, 7A1 were measured as previously described using 5 μg/ml of recombinant protein (Chen, C. H., Cruz, L. A., and Mochly-Rosen, D. (2015) Pharmacological recruitment of aldehyde dehydrogenase 3A1 (ALDH3A1) to assist ALDH2 in acetaldehyde and ethanol metabolism in vivo. Proceedings of the National Academy of Sciences of the United States of America 112, 3074-3079). […] Assays were conducted in 50 mM NaPPi buffer (pH 7.4) in the presence of 2.5 mM NAD^+ and 10 mM substrate and measured in triplicate at 25° C. Dose response curve fits and EC50's were calculated using GraphPad Prism 7 software."}}}
{"smiles": "C=C(C)[C@H]1CC=C(C)CC1", "note": "[Alda-341, D-limonene]", "values": [{"measurement": "aldehydic load after radiation", "setting": "[1]", "value": "reduced the aldehydic load to almost non-irradiated levels"}, {"measurement": "increase in total salisphere number compared to vehicle control", "setting": "[2]", "value": "~15", "unit": "%"}, {"measurement": "complete blood count and blood chemistry panel", "setting": "[3]", "value": "normal complete blood count and blood chemistry panel"}, {"measurement": "catalytic activity of all trans-retinal in ALDH3A1", "setting": "ALDH3A1", "value": "did not increase"}, {"measurement": "catalytic activity of ALDH4A1", "setting": "ALDH4A1", "value": "did not increase"}]}
